ChEMBL document CHEMBL3108728, “Anti-inflammatory activity of rhamnetin and a model of its binding to c-Jun NH2-terminal kinase 1 and p38 MAPK” (J Nat Prod, 2014)
Calls of active or inactive are those of the source. No cut-off for these calls is given here.

Key:
RAW264.7 [1] = test: Antiinflammatory activity against mouse RAW264.7 cells assessed as inhibition of LPS-induced TNFalpha production at 10 uM after 24 hrs by ELISA; format: functional; conditions: RAW264.7, 24 h
RAW264.7 [2] = test: Antiinflammatory activity against mouse RAW264.7 cells assessed as reduction of IFNgamma-induced NO production at 20 uM after 24 hrs; format: functional; parameters: scale not given: the % may be the effect or the level left
[3] = target: T1, MAP kinase p38 (Mus musculus) (UniProt P47811+O08911+Q9WUI1+Q9Z1B7); test: Inhibition of LPS-induced p38 MAPK phosphorylation in mouse RAW264.7 cells at 20 uM by Western blotting analysis; format: cell-based
[4] = target: Mitogen-activated protein kinase 8 (Homo sapiens) (UniProt P45983); test: Binding affinity to human C-terminal His6-tagged JNK1alpha1 (1 to 364) expressed in Escherichia coli by spectrofluorometry
RAW264.7 [5] = test: Antiinflammatory activity against mouse RAW264.7 cells assessed as inhibition of LPS-induced TNFalpha production at 20 uM after 24 hrs by ELISA; format: functional; conditions: RAW264.7, 24 h
RAW264.7 [6] = test: Antiinflammatory activity against mouse RAW264.7 cells assessed as reduction of LPS-induced mMIP-1 mRNA expression at 25 uM after 3 hrs by RT-PCR analysis relative to untreated control; format: functional; parameters: scale not given: the % may be the effect or the level left
HaCaT = test: Cytotoxicity against human HaCaT cells at 100 uM after 24 hrs by MTT assay relative to untreated control; format: cell-based
[7] = target: Mitogen-activated protein kinase 3 (Mus musculus) (UniProt Q63844); test: Inhibition of IFNgamma-induced ERK phosphorylation in mouse RAW264.7 cells at 20 uM by Western blotting analysis relative to untreated control; format: cell-based
[8] = target: T2, Monocyte differentiation antigen CD14 (Mus musculus) (UniProt P10810); test: Inhibition of CD14 in mouse RAW264.7 cells at 20 uM by Western blotting analysis; format: cell-based
T2 sequence (whole entry): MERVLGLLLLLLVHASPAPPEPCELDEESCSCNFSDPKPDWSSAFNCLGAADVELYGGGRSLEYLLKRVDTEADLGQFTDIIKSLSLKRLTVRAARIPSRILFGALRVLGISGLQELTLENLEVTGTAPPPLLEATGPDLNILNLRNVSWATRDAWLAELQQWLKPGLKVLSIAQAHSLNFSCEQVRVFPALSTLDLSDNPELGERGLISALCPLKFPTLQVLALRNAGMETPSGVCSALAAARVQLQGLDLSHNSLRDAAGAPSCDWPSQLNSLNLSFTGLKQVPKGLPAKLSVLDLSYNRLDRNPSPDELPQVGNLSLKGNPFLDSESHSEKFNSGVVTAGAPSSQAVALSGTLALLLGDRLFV

RAW264.7 [9] = test: Antiinflammatory activity against mouse RAW264.7 cells assessed as reduction of LPS-induced mTNFalpha mRNA expression at 25 uM after 3 hrs by RT-PCR analysis relative to untreated control; format: functional, cell-based
RAW264.7 [10] = test: Cytotoxicity against mouse RAW264.7 cells up to 12.5 uM after 24 hrs by MTT assay relative to untreated control; format: cell-based; conditions: raw264.7, 24 h
RAW264.7 [11] = test: Antiinflammatory activity against mouse RAW264.7 cells assessed as reduction of LPS-induced NO production at 20 uM after 24 hrs; format: functional; parameters: scale not given: the % may be the effect or the level left
[12] = target: Mitogen-activated protein kinase 8 (Mus musculus) (UniProt Q91Y86); test: Inhibition of LPS-induced JNK phosphorylation in mouse RAW264.7 cells at 20 uM by Western blotting analysis; format: cell-based
RAW264.7 [13] = test: Antiinflammatory activity against mouse RAW264.7 cells assessed as reduction of LPS-induced mMIP-2 level at 10 uM after 24 hrs by ELISA relative to untreated control; format: functional; parameters: scale not given: the % may be the effect or the level left
[14] = target: Mitogen-activated protein kinase 8 (Mus musculus) (UniProt Q91Y86); test: Inhibition of IFNgamma-induced JNK phosphorylation in mouse RAW264.7 cells at 20 uM by Western blotting analysis relative to untreated control; format: cell-based
[15] = target: T1, MAP kinase p38 (Mus musculus); test: Inhibition of IFNgamma-induced p38 MAPK phosphorylation in mouse RAW264.7 cells at 20 uM by Western blotting analysis relative to untreated control; format: cell-based
[16] = target: Mitogen-activated protein kinase 3 (Mus musculus) (UniProt Q63844); test: Inhibition of LPS-induced ERK phosphorylation in mouse RAW264.7 cells at 20 uM by Western blotting analysis; format: cell-based
RAW264.7 [17] = test: Antiinflammatory activity against mouse RAW264.7 cells assessed as reduction of IFNgamma-induced NO production at 10 uM after 24 hrs; format: functional; parameters: scale not given: the % may be the effect or the level left
RAW264.7 [18] = test: Antiinflammatory activity against mouse RAW264.7 cells assessed as inhibition of LPS-induced COX2 protein expression at 20 uM by Western blotting analysis; format: functional
RAW264.7 [19] = test: Antiinflammatory activity against mouse RAW264.7 cells assessed as reduction of LPS-induced mMIP-2 mRNA expression at 25 uM after 3 hrs by RT-PCR analysis relative to untreated control; format: functional, cell-based
[20] = Cytotoxicity against mouse RAW264.7 cells assessed as cell survival at 100 uM after 24 hrs by MTT assay relative to untreated control; format: cell-based; conditions: read-out: Survival
RAW264.7 [21] = test: Antiinflammatory activity against mouse RAW264.7 cells assessed as reduction of LPS-induced mMIP-2 level at 20 uM after 24 hrs by ELISA relative to untreated control; format: functional; parameters: scale not given: the % may be the effect or the level left
RAW264.7 [22] = test: Antiinflammatory activity against mouse RAW264.7 cells assessed as reduction of LPS-induced NO production at 10 uM after 24 hrs; format: functional; parameters: scale not given: the % may be the effect or the level left
[23] = target: Mitogen-activated protein kinase 8 (Homo sapiens) (UniProt P45983); test: Binding affinity to human C-terminal His6-tagged JNK1alpha1 (1 to 364) expressed in Escherichia coli by circular dichroism method
[24] = target: T3, MAP kinase p38 (Homo sapiens) (UniProt O15264+Q15759+Q16539+P53778); test: Binding affinity to human p38 MAPK expressed in Escherichia coli by circular dichroism method
[25] = target: T3, MAP kinase p38 (Homo sapiens); test: Binding affinity to human p38 MAPK expressed in Escherichia coli by spectrofluorometry

Chain of Mitogen-activated protein kinase 8 (Homo sapiens) (P45983 whole entry): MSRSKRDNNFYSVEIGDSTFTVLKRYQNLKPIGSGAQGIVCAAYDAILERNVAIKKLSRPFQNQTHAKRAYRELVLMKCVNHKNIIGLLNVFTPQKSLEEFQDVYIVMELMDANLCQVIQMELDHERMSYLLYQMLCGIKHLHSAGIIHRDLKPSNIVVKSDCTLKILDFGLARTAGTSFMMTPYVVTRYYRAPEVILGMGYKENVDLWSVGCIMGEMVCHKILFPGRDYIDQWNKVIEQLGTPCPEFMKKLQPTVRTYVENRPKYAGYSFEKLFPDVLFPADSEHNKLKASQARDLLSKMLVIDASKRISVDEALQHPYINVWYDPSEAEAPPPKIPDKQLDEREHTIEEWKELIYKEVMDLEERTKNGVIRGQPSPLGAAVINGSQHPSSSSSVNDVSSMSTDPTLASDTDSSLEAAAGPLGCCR
Chain of Mitogen-activated protein kinase 3 (Mus musculus) (Q63844 whole entry): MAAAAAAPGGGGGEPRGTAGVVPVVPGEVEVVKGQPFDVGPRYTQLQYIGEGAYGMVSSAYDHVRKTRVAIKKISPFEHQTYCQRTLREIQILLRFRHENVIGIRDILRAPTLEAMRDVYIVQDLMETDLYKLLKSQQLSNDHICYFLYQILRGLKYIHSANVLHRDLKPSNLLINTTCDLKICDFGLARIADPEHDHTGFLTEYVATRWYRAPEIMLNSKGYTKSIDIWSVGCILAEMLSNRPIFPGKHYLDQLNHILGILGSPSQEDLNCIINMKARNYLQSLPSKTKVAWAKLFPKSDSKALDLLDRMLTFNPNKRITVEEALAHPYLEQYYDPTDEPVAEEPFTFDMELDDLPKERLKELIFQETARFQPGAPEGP
Chain of Mitogen-activated protein kinase 8 (Mus musculus) (Q91Y86 whole entry): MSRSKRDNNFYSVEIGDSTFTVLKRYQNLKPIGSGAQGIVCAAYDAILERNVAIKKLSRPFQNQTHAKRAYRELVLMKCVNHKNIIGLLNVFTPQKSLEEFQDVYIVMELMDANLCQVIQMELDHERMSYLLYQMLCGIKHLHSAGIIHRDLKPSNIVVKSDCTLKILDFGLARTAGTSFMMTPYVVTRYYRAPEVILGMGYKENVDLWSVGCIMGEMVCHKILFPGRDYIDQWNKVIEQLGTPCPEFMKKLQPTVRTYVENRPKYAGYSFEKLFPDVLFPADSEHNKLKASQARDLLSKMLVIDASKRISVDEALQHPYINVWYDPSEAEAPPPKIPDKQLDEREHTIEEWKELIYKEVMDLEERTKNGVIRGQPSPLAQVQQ

COc1cc(O)c2c(=O)c(O)c(-c3ccc(O)c(O)c3)oc2c1 [RHAMNETIN]
inhibition at 10 µM (RAW264.7 [1]): 54%
Activity (RAW264.7 [2]): 91.5%
inhibition [3]: 51%
K [4]: 9.7 ×10⁸ /M
inhibition at 20 µM (RAW264.7 [5]): 63%
Activity (RAW264.7 [6]): 96.2%
Activity (HaCaT): Non-toxic
inhibition [7]: 38%
inhibition [8]: inactive
Activity (RAW264.7 [9]): Active
Activity (RAW264.7 [10]): Non-toxic
Activity (RAW264.7 [11]): 74%
inhibition [12]: 64%
Activity (RAW264.7 [13]): 42%
inhibition [14]: 92%
inhibition [15]: 58%
inhibition [16]: 27%
Activity (RAW264.7 [17]): 73.2%
inhibition at 20 µM (RAW264.7 [18]): 76%
Activity (RAW264.7 [19]): Active
viability at 24 h, 100 µM [20]: > 55%
Activity (RAW264.7 [21]): 77%
Activity (RAW264.7 [22]): 62%
Activity [23]: Active
Activity [24]: Active
K [25]: 2.31 ×10⁷ /M
